What all share (format): in vivo
Holding throughout (conditions): 250 g/ha, evaluated visually after 13 days, scale 0-5

The subject of experiment [1] is Zea mays (ZEAMX). Put plainly: Herbicidal efficacy, application pre-emergence. On the procedure:
(§1) Seeds of a variety of test species [Ipomoea hederacea (IPOHE); Zea mays (ZEAMX); Echinochloa crus-galli (ECHCG); Setaria faberi (SETFA); Abutilon theophrasti (ABUTH); Amaranthus retroflexus (AMARE)] were sown in standard sterilised soil in pots. After cultivation for one day (pre-emergence) or after 8 days cultivation (post-emergence) under controlled conditions in a glasshouse (at 24/16° C., day/night; 14 hours light; 65 % humidity), the plants were sprayed with an aqueous spray solution derived from the formulation of the technical active ingredient in acetone / water (50:50) solution containing 0.5% Tween 20 (polyoxyethelyene sorbitan monolaurate, CAS RN 9005-64-5), subsequently diluted in water, and sprayed to give the stated application rate.
(§2) The test plants were then grown under controlled conditions in a glasshouse (at 24/16° C., day/night; 14 hours light; 65 % humidity) and watered twice daily.
(§3) After 13 days for pre- and post-emergence, the test was evaluated visually for percentage phytotoxicity to the plant (where 5 = total damage to plant; 0 = no damage to plant).

The subject of experiment [2] is Amaranthus retroflexus (AMARE). Put plainly: Herbicidal efficacy, application post-emergence. On the procedure:
as §1, §2, §3

Experiment [3] has as its system Setaria faberi (SETFA). Nature of the experiment: Herbicidal efficacy, application post-emergence. As for the experimental part:
as §1, §2, §3

Experiment [4] concerns Zea mays (ZEAMX). Put plainly: Herbicidal efficacy, application post-emergence. On the procedure:
as §1, §2, §3

The test system of experiment [5] is Echinochloa crus-galli (ECHCG). Put plainly: Herbicidal efficacy, application post-emergence. On the procedure:
as §1, §2, §3

The subject of experiment [6] is Ipomoea hederacea (IPOHE). Nature of the experiment: Herbicidal efficacy, application post-emergence. On the procedure: as §1, §2, §3
In experiment [7] the test system is Abutilon theophrasti (ABUTH). Nature of the experiment: Herbicidal efficacy, application post-emergence. Also on record: key: 5 = total damage to plant; 0 = no damage to plant. As for the experimental part: as §1, §2, §3
Experiment [8] concerns Amaranthus retroflexus (AMARE). Put plainly: Herbicidal efficacy, application pre-emergence. Set-up: key: 5 = total damage to plant; 0 = no damage to plant. On the procedure:
as §1, §2, §3

Experiment [9] has as its system Abutilon theophrasti (ABUTH). Nature of the experiment: Herbicidal efficacy, application pre-emergence. Set-up: key: 5 = total damage to plant; 0 = no damage to plant. On the procedure: as §1, §2, §3
Experiment [10] deals with Setaria faberi (SETFA). Nature of the experiment: Herbicidal efficacy, application pre-emergence. Set-up: key: 5 = total damage to plant; 0 = no damage to plant. On the procedure:
as §1, §2, §3

The test system of experiment [11] is Echinochloa crus-galli (ECHCG). Put plainly: Herbicidal efficacy, application pre-emergence. Also on record: key: 5 = total damage to plant; 0 = no damage to plant. As for the experimental part:
as §1, §2, §3

For experiment [12], the system named is Ipomoea hederacea (IPOHE). Nature of the experiment: Herbicidal efficacy, application pre-emergence. Set-up: key: 5 = total damage to plant; 0 = no damage to plant. On the procedure:
as §1, §2, §3

SMILES strings stand for the structures.

As to `Cc1cc(C2CN(C)C(=O)C2C(=O)Nc2ccc(F)nc2F)nn1C(F)F` (stereo not drawn) [Compound 81, 4-[1-(difluoromethyl)-5-methyl-pyrazol-3-yl]-N-(2,6-difluoro-3-pyridyl)-1-methyl-2-oxo-pyrrolidine-3-carboxamide], the “phytotoxicity to the plant, ZEAMX” value was 2 with Zea mays (ZEAMX) [1] and 4 in the experiment with Zea mays (ZEAMX) [4]. Further, the “phytotoxicity to the plant, AMARE” value turned out to be 2 in experiment [2] and 0 in experiment [8]. Also, the entries for the “phytotoxicity to the plant, SETFA” value in the experiment on Setaria faberi (SETFA) [3] and in the experiment with Setaria faberi (SETFA) [10] were 4 and 5, respectively. In addition, the figures for the “phytotoxicity to the plant, ECHCG” value in experiment [5] and in experiment [11] were 4 and 5, respectively. The figures for the “phytotoxicity to the plant, IPOHE” value in experiment [6] and in experiment [12] were 1 and 2, respectively. Also, the “phytotoxicity to the plant, ABUTH” value in experiment [7] and in experiment [9] was 0 throughout.

As for `CCc1cc(C2CN(C)C(=O)C2C(=O)Nc2ccc(F)nc2F)nn1C(F)F` (stereo not drawn) [Compound 82, 4-[1-(difluoromethyl)-5-ethyl-pyrazol-3-yl]-N-(2,6-difluoro-3-pyridyl)-1-methyl-2-oxo-pyrrolidine-3-carboxamide], the “phytotoxicity to the plant, ZEAMX” value with Zea mays (ZEAMX) [1] stood at 3; in the experiment with Zea mays (ZEAMX) [4], 4. Also, the “phytotoxicity to the plant, AMARE” value in experiment [2] and in experiment [8] was 1 throughout. In addition, the results for the “phytotoxicity to the plant, SETFA” value in the experiment on Setaria faberi (SETFA) [3] and with Setaria faberi (SETFA) [10] were 4 and 5, respectively. Further, the “phytotoxicity to the plant, ECHCG” value in experiment [5] was 4; in experiment [11] it was 5. Moreover, the “phytotoxicity to the plant, IPOHE” value in experiment [6] is given as 4; in experiment [12], 3. Besides, the “phytotoxicity to the plant, ABUTH” value in [7] and in experiment [9] was 1 throughout.

Take `Cc1c(Br)c(C2CN(C)C(=O)C2C(=O)Nc2ccc(F)nc2F)nn1C(F)F` (stereo not drawn) [Compound 83, 4-[4-bromo-1-(difluoromethyl)-5-methyl-pyrazol-3-yl]-N-(2,6-difluoro-3-pyridyl)-1-methyl-2-oxo-pyrrolidine-3-carboxamide]: the “phytotoxicity to the plant, ZEAMX” value is 1 with Zea mays (ZEAMX) [1] and 4 in the experiment on Zea mays (ZEAMX) [4]. Moreover, the “phytotoxicity to the plant, AMARE” value in experiment [2] is 1; in [8], 0. Further, the “phytotoxicity to the plant, SETFA” value is 3 in the experiment with Setaria faberi (SETFA) [3] and 5 in the experiment on Setaria faberi (SETFA) [10]. The “phytotoxicity to the plant, ECHCG” value in experiment [5] is given as 4; in [11], 5. The results for the “phytotoxicity to the plant, IPOHE” value in experiment [6] and in experiment [12] were 1 and 0, respectively. In addition, the “phytotoxicity to the plant, ABUTH” value in experiment [7] turned out to be 1; in experiment [9] it was 0.

With `Cc1cc(C2CN(C)C(=S)C2C(=O)Nc2ccc(F)nc2F)nn1C(F)F` (stereo not drawn) [Compound 85, 4-[1-(difluoromethyl)-5-methyl-pyrazol-3-yl]-N-(2,6-difluoro-3-pyridyl)-1-methyl-2-thioxo-pyrrolidine-3-carboxamide], the “phytotoxicity to the plant, ZEAMX” value in the experiment on Zea mays (ZEAMX) [1] and in the experiment on Zea mays (ZEAMX) [4] was 1 each time. The figures for the “phytotoxicity to the plant, AMARE” value in experiment [2] and in experiment [8] were 1 and 0, respectively. Further, the figures for the “phytotoxicity to the plant, SETFA” value in the experiment with Setaria faberi (SETFA) [3] and with Setaria faberi (SETFA) [10] were 2 and 4, respectively. In addition, the “phytotoxicity to the plant, ECHCG” value in experiment [5] and in experiment [11] was 4 throughout. For the same compound, the “phytotoxicity to the plant, IPOHE” value in experiment [6] is recorded as 1; in [12], 0. Moreover, the “phytotoxicity to the plant, ABUTH” value in experiment [7] and in [9] was 0 each time.

With `CCc1cc(C2CN(C)C(=S)C2C(=O)Nc2ccc(F)nc2F)nn1C(F)F` (stereo not drawn) [Compound 86, 4-[1-(difluoromethyl)-5-ethyl-pyrazol-3-yl]-N-(2,6-difluoro-3-pyridyl)-1-methyl-2-thioxo-pyrrolidine-3-carboxamide], the results for the “phytotoxicity to the plant, ZEAMX” value in the experiment on Zea mays (ZEAMX) [1] and with Zea mays (ZEAMX) [4] were 1 and 3, respectively. Besides, the “phytotoxicity to the plant, AMARE” value in [2] is on record as 1; in experiment [8], 2. Further, the “phytotoxicity to the plant, SETFA” value in the experiment with Setaria faberi (SETFA) [3] is reported as 4; in the experiment with Setaria faberi (SETFA) [10] it was 5. Moreover, the “phytotoxicity to the plant, ECHCG” value in experiment [5] is 4; in experiment [11], 5. The “phytotoxicity to the plant, IPOHE” value amounted to 1 in experiment [6] and 0 in experiment [12]. Moreover, the “phytotoxicity to the plant, ABUTH” value was found to be 3 in [7] and 1 in experiment [9].

The record behind these values is patent US20230312478A1, “HERBICIDAL COMPOUNDS” (SYNGENTA CROP PROTECTION AG, priority 2020, published 2023).
